{"source": "ChEMBL document CHEMBL1201862", "about": "“PubChem BioAssay data set” (2004)", "test_in_all_cases": "growth of human tumour cells (NCI), 48 h", "key": {"SK-OV-3": {"system": "SK-OV-3"}, "OVCAR-4": {"system": "OVCAR-4"}, "HCT-15": {"system": "HCT-15"}, "CAKI-1": {"system": "CAKI-1"}, "EKVX": {"system": "EKVX"}, "OVCAR-3": {"system": "OVCAR-3"}, "MDA-MB-435": {"system": "MDA-MB-435"}, "COLO 205": {"system": "COLO 205"}, "OVCAR-8": {"system": "OVCAR-8"}, "TK-10": {"system": "TK-10"}, "HL-60": {"system": "HL-60"}, "NCI/ADR-RES": {"system": "NCI/ADR-RES"}, "SF-295": {"system": "SF-295"}, "HOP-62": {"system": "HOP-62"}, "SF-268": {"system": "SF-268"}, "LOX IMVI": {"system": "LOX IMVI"}, "SNB-75": {"system": "SNB-75"}, "Malme-3M": {"system": "Malme-3M"}, "UACC-62": {"system": "UACC-62"}, "U-251": {"system": "U-251"}, "OVCAR-5": {"system": "OVCAR-5"}, "ACHN": {"system": "ACHN"}, "NCI-H522": {"system": "NCI-H522"}, "IGROV-1": {"system": "IGROV-1"}, "T47D": {"system": "T47D"}, "SF-539": {"system": "SF-539"}, "MOLT-4": {"system": "MOLT-4"}, "CCRF-CEM": {"system": "CCRF-CEM"}, "MDA-MB-231": {"system": "MDA-MB-231"}, "A549": {"system": "A549"}, "HCC 2998": {"system": "HCC 2998"}, "HCT-116": {"system": "HCT-116"}, "UACC-257": {"system": "UACC-257"}, "A498": {"system": "A498"}, "NCI-H460": {"system": "NCI-H460"}, "SR": {"system": "SR"}, "786-0": {"system": "786-0"}, "M14": {"system": "M14"}, "NCI-H23": {"system": "NCI-H23"}, "UO-31": {"system": "UO-31"}, "SK-MEL-28": {"system": "SK-MEL-28"}, "K562": {"system": "K562"}, "HT-29": {"system": "HT-29"}, "BT-549": {"system": "BT-549"}, "HOP-92": {"system": "HOP-92"}, "SN12C": {"system": "SN12C"}, "SNB-19": {"system": "SNB-19"}, "Hs-578T": {"system": "Hs-578T"}, "MCF7": {"system": "MCF7"}, "MDA-N": {"system": "MDA-N"}, "DU-145": {"system": "DU-145"}, "SK-MEL-5": {"system": "SK-MEL-5"}, "NCI-H226": {"system": "NCI-H226"}, "RXF 393": {"system": "RXF 393"}, "SW-620": {"system": "SW-620"}, "KM12": {"system": "KM12"}, "SK-MEL-2": {"system": "SK-MEL-2"}}, "note": "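Protocol summary: plate cells (96-well), add compound at 5 concentrations, incubate 48 h, interpolate endpoints linearly. GI50 marks 50% less growth.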 Calls of active or inactive are those of the source. No stated cut-off is given here; in the data, active = GI50 up to about 1.1 µM and inactive = higher.", "data": [{"smiles": "COc1ccc(Nc2[nH]c(C(C)=O)c(N)c2C(=S)Nc2ccccc2)cc1", "values": [{"measurement": "GI50", "setting": "SK-OV-3", "value": "> 100 µM (inactive)"}, {"measurement": "GI50", "setting": "OVCAR-4", "value": "36.5 µM (inactive)"}, {"measurement": "GI50", "setting": "HCT-15", "value": 35.6, "unit": "µM"}, {"measurement": "GI50", "setting": "CAKI-1", "value": "87.3 µM (inactive)"}, {"measurement": "GI50", "setting": "EKVX", "value": "99.8 µM (inactive)"}, {"measurement": "GI50", "setting": "OVCAR-3", "value": "> 100 µM (inactive)"}, {"measurement": "GI50", "setting": "MDA-MB-435", "value": "49.4 µM (inactive)"}, {"measurement": "GI50", "setting": "COLO 205", "value": "21.9 µM (inactive)"}, {"measurement": "GI50", "setting": "OVCAR-8", "value": "60.8 µM (inactive)"}, {"measurement": "GI50", "setting": "TK-10", "value": "68.9 µM (inactive)"}, {"measurement": "GI50", "setting": "HL-60", "value": "45.1 µM (inactive)"}, {"measurement": "GI50", "setting": "NCI/ADR-RES", "value": "> 100 µM (inactive)"}, {"measurement": "GI50", "setting": "SF-295", "value": "61.5 µM (inactive)"}, {"measurement": "GI50", "setting": "HOP-62", "value": "> 100 µM (inactive)"}, {"measurement": "GI50", "setting": "SF-268", "value": "29.6 µM (inactive)"}, {"measurement": "GI50", "setting": "LOX IMVI", "value": "32.1 µM (inactive)"}, {"measurement": "GI50", "setting": "SNB-75", "value": "> 100 µM (inactive)"}, {"measurement": "GI50", "setting": "Malme-3M", "value": "50.6 µM (inactive)"}, {"measurement": "GI50", "setting": "UACC-62", "value": "25.9 µM (inactive)"}, {"measurement": "GI50", "setting": "U-251", "value": "43.8 µM (inactive)"}, {"measurement": "GI50", "setting": "OVCAR-5", "value": "> 100 µM (inactive)"}, {"measurement": "GI50", "setting": "ACHN", "value": "77.6 µM (inactive)"}, {"measurement": "GI50", "setting": "NCI-H522", "value": "36.6 µM (inactive)"}, {"measurement": "GI50", "setting": "IGROV-1", "value": "78.2 µM (inactive)"}, {"measurement": "GI50", "setting": "T47D", "value": "56.8 µM (inactive)"}, {"measurement": "GI50", "setting": "SF-539", "value": "73.1 µM (inactive)"}, {"measurement": "GI50", "setting": "MOLT-4", "value": "> 100 µM (inactive)"}, {"measurement": "GI50", "setting": "CCRF-CEM", "value": "> 100 µM (inactive)"}, {"measurement": "GI50", "setting": "MDA-MB-231", "value": "52 µM (inactive)"}, {"measurement": "GI50", "setting": "A549", "value": "41.9 µM (inactive)"}, {"measurement": "GI50", "setting": "HCC 2998", "value": "28.2 µM (inactive)"}, {"measurement": "GI50", "setting": "HCT-116", "value": "38.6 µM (inactive)"}, {"measurement": "GI50", "setting": "UACC-257", "value": "52.2 µM (inactive)"}, {"measurement": "GI50", "setting": "A498", "value": "> 100 µM (inactive)"}, {"measurement": "GI50", "setting": "NCI-H460", "value": "48.3 µM (inactive)"}, {"measurement": "GI50", "setting": "SR", "value": "33.7 µM (inactive)"}, {"measurement": "GI50", "setting": "786-0", "value": "42.5 µM (inactive)"}, {"measurement": "GI50", "setting": "M14", "value": "26.8 µM (inactive)"}, {"measurement": "GI50", "setting": "NCI-H23", "value": "65 µM (inactive)"}, {"measurement": "GI50", "setting": "UO-31", "value": "51.6 µM (inactive)"}, {"measurement": "GI50", "setting": "SK-MEL-28", "value": "36.2 µM (inactive)"}, {"measurement": "GI50", "setting": "K562", "value": "45.9 µM (inactive)"}, {"measurement": "GI50", "setting": "HT-29", "value": "35.3 µM (inactive)"}, {"measurement": "GI50", "setting": "BT-549", "value": "78 µM (inactive)"}, {"measurement": "GI50", "setting": "HOP-92", "value": "> 100 µM (inactive)"}, {"measurement": "GI50", "setting": "SN12C", "value": "86.7 µM (inactive)"}, {"measurement": "GI50", "setting": "SNB-19", "value": "82.8 µM (inactive)"}, {"measurement": "GI50", "setting": "Hs-578T", "value": "74 µM (inactive)"}, {"measurement": "GI50", "setting": "MCF7", "value": "23.6 µM (inactive)"}, {"measurement": "GI50", "setting": "MDA-N", "value": "76.4 µM (inactive)"}, {"measurement": "GI50", "setting": "DU-145", "value": "> 100 µM (inactive)"}, {"measurement": "GI50", "setting": "SK-MEL-5", "value": "37.2 µM (inactive)"}, {"measurement": "GI50", "setting": "NCI-H226", "value": "36.1 µM (inactive)"}, {"measurement": "GI50", "setting": "RXF 393", "value": "16.6 µM (inactive)"}, {"measurement": "GI50", "setting": "SW-620", "value": "> 100 µM (inactive)"}, {"measurement": "GI50", "setting": "KM12", "value": "37.5 µM (inactive)"}, {"measurement": "GI50", "setting": "SK-MEL-2", "value": "32.9 µM (inactive)"}]}]}
